Data set [1] concerns mouse T cellular lymphoma EL4. The settings on record: for Mice surviving on the 70th day: end of experiment day 70. As for the experimental part: The in vivo experiments involved a model of mouse T cellular lymphoma EL4, the experimental animals were mice (males) of the B/6 species that were subcutaneously implanted with 10^5 tumor cells on day 0. The conjugates were applied intravenously in a dose of 1×15 mg/kg of DOX equivalent. This single application was carried out on the ninth day after the tumor cells transplantation, i.e. at a time when the tumor was palpable, about approx. 400 mm^3 in size.

For data set [2], the target named is cathepsine B (Homo sapiens, UniProt P07858). Nature of the data set: Degradation of grafted conjugates by cathepsine B. Particulars: cathepsine B 5.10^−7 mol/l, pH 6, 37° C., 24 hours. It counts as in vitro ADME. The procedure:
The degradation experiments were carried in a phosphate buffer (0.1 M phosphate buffer containing 0.05 M NaCl, pH 6) in the presence of cathepsine B or glutathione in the role of degradation agents, i.e. in the environment modeling intracellular environment (cytoplasm, endosome and secondary lysosome). The grafted polymeric conjugates were dissolved in the phosphate buffer in concentration of 50 mg/ml and immediately before the solutions were placed in a thermostat (37° C.) a stock solution of cathepsine B or glutathione was added to the solutions so that the final concentration of these agents in the incubation medium was 5.10^−7 mol/l and 3.10^−3 mol/l for cathepsine and glutathione, respectively. In predetermined intervals aliquot parts (200 μl) were sampled from the incubation solutions. The samples were desalinated in the PD-10 columns and lyophilized. The molecular weight of the degradation products was measured using the Shimadzu SIL-HT liquid chromatograph fitted with a differential refractometer (Shimadzu RID-10A) and multiangle light dispersion detector (DAWN EOS, Wyatt Technology, USA). The analysis was carried out in a Superose™ 6 column (300×10 mm) (Amersham Bioscience). […] The molecular weight and polydispersity of the copolymer was calculated using the Astra software. […]

For data set [3], the system named is Jurkat. Nature of the data set: In vitro cytotoxicity, Jurkat line. It counts as cell-based. The settings on record: Homo sapiens; Jurkat cells; repeated values per sample.
Data set [4] relates to SW620 (human colorectal carcinoma). In words: In vitro cytotoxicity, SW620 line. The settings on record: SW-620, SW620 cells, repeated values per sample. It counts as cell-based.
[5] abbreviates: 1×15 mg/kg DOX equivalent i.v. on day 9.

In brackets after ≈: the same amount, converted by molar mass.

For the compound “poly(HPMA-co-MA-AH-NHNH2-MA-AH-NHN=DOX-co-MA-GFLG-NH—)-graft-[(GFLG)-poly(HPMA-co-MA-AH-NHNH2-co-MA-AH-NHN=DOX)] [Conjugate 1d]”, in data set [1] (setting [5]), the Anticancer effect result is reported as “very significant anticancer effect”, the “Weight decrease as a sign of toxicity” value is listed as “no weight decrease” and the “Mice surviving on the 70th day” value is 88%. Besides, in data set [2], the “Molecular weight of degradation products” value is listed as “below the renal filtration limit”.
In general, IC50 refers to the midpoint of a concentration-inhibition curve. The low end stands for greater potency in that assay, the high end for weaker potency in that assay. With `COc1cccc2c1C(=O)c1c(O)c3c(c(O)c1C2=O)C[C@@](O)(C(=O)CO)C[C@@H]3O[C@H]1C[C@H](N)[C@H](O)[C@H](C)O1` [Dox, doxorubicin], the IC50 in data set [3] is 0.119 µg/mL (≈ 0.219 µM); in data set [4], 0.003 µg/mL (≈ 0.00552 µM).
Turning to “poly(HPMA-co-MA-AH-NHNH2-co-MA-AH-NHN=DOX-co-MA-AH-SS—)-graft-[(SS)-poly(HPMA-co-MA-AH-NHNH2-MA-AH-NHN=DOX)] [Conjugate 3a]”, in data set [1] (setting [5]), the Anticancer effect result was “very significant anticancer effect” and the “Mice surviving on the 70th day” value is 100%. In addition, the “Survival: day of animal death or LTS (individual mice)” value in data set [1] (B/6 mice, EL 4 10^5 cells s.c. day 0, one i.v. dose 15 mg/kg DOX equivalent on day 9) is listed as “LTS”.

The values above are taken from patent publication US8603990B2, “Grafted macromolecular conjugates of doxorubicin with anticancer activity and method of their preparation” (priority 2006, dated 2013).
